In publication PMC6315989, “Red-Shifted FRET Biosensors for High-Throughput Fluorescence Lifetime Screening” (Biosensors, 2018):
Where “and” joins values, the source holds several entries; their conditions need not be identical. Identical values can stand only once.

Tests used:
[1] = target: T1, human cardiac calcium pump (SERCA2a) (Homo sapiens, UniProt P16615); experiment: 2CS (O/M, OFP/MFP) red-shifted FRET fluorescence lifetime biosensor in living HEK293 cells; format: cell-based
Experimental: (§1) HEK293 (originally derived from human embryonic kidney) cells were maintained in phenol red-free DMEM from Gibco (Waltham, MA, USA) supplemented with 2 mM GlutaMAX (Gibco), 10% fetal bovine serum (FBS), from Atlanta Biologicals (Lawrenceville, GA, USA), and 1 IU/mL penicillin/streptomycin (Gibco) and grown at 37 °C with 5% CO2. HEK293 cell lines were used to generate stable clones overexpressing the FRET-based biosensors (containing both donor and acceptor) and corresponding donor-only and acceptor-only control cell lines. Three days prior to screening, the stable cell lines were expanded into T225 flasks from Corning Inc. (Corning, NY, USA). On each day of screening and FRET hit retesting, approximately 30 million cells were harvested by treatment of Tryple from Invitrogen (Carlsbad, CA, USA), washed three times in phosphate buffer solution (PBS) with no magnesium or calcium from Thermo Scientific (Waltham, MA, USA) by centrifugation at 300 g, filtered using 70 µm cell strainers (Corning), and diluted to 10^6 cells/mL using an automated countess cell counter (Invitrogen). On each day of screening, cell viability was assessed using the trypan blue assay and found to be above 95% viable. After resuspension and dilution in PBS, the cells were continuously and gently stirred using a magnetic stir bar at room temperature, keeping the cells in suspension and evenly distributed to avoid clumping. Subcellular localization of each biosensor was evaluated using an Olympus FluoView FV1000 IX2 (Tokyo, Japan) Inverted Confocal microscope with FLIM detector. GFP and RFP signals were assessed using 473 and 561 nm laser excitation, respectively. Cell nuclei were identified by staining with DAPI, using 405 nm laser excitation.
(§2) Cells and compound mixtures were dispensed into 1536-well flat, black-bottom polypropylene plates from Greiner (Kremsmünste, Austria). Compounds were dispensed using either an automated Echo acoustic liquid dispenser from Labcyte (Sunnyvale, CA, USA) or a Mosquito liquid dispenser from TTP Labtech (Melbourn, UK). Cells were dispensed at room temperature using a Multidrop Combi liquid dispenser from Thermo (Pittsburg, PA, USA), at a density of 10^6 cells/mL, either 30 or 120 min before screening. For screening, cells were dispensed into assay plates containing the 1280-compund LOPAC (Library of Pharmacologically Active Compounds, from Invitrogen), dissolved in DMSO. The final DMSO concentration was <1%, and control wells were prepared containing cells and matching [DMSO]. The same methods were applied for subsequent FRET testing of the reproducible hits identified in the pilot screen. Reproducible FRET hits for retesting were purchased from Tocris (Minneapolis, MN, USA) or Invitrogen (Carlsbad, CA, USA), depending on their availability.
(§3) An in-depth description of the fluorescence instrumentation has previously been described in detail and can be found in our previous publication. The current instrument has been updated to a high-density microplate format (1536 wells, 5 μL/well), acquiring data from a full plate in less than three minutes with lifetime measurement precision (standard deviation/mean) of 1% or better. Fluorescence decay waveforms (with upper-end specifications of […] resolution, 640 data points over 128 ns range) for FLT determination were detected directly as previously described, except that two different light sources were used for GFP and OFP. In both cases, fluorescence was excited with a pulsed microchip laser producing nanosecond-wide pulses. As previously described for GFP, a 473 nm laser (Bright Solutions, Via degli Artigiani, Italy) was used, delivering pulses of ~1 μJ energy at a 5 kHz repetition rate. For OFP, a 532 nm laser (Teem Photonics SNG-20F-100, Meylan, France) was used, delivering pulses of ~0.3 μJ energy at a 20 kHz repetition rate. […]

[2] = target: T2, SERCA1a (Oryctolagus cuniculus, UniProt P04191); experiment: Enzyme-coupled NADH-linked SERCA ATPase activity assay, skeletal SR vesicles; format: biochemical, rabbit
T2 construct: sarcoplasmic reticulum vesicles prepared from rabbit skeletal muscle (SERCA1a); from tissue; host or cells: rabbit skeletal muscle sarcoplasmic reticulum vesicles
Experimental: (§4) Functional assays were performed using sarcoplasmic reticulum vesicles prepared from rabbit skeletal muscle (SERCA1a) and pig cardiac muscle (SERCA2a). An enzyme-coupled, NADH-linked ATPase assay was used to measure SERCA ATPase activity in 96-well microplates. Each well contained 50 mM MOPS (pH 7.0), 100 mM KCl, 5 mM MgCl2, 1 mM EGTA, 0.2 mM NADH, 1 mM phosphoenol pyruvate, 10 IU/mL of pyruvate kinase, 10 IU/mL of lactate dehydrogenase, 1 µM of the calcium ionophore A23187 from Sigma (St. Louis, MO, USA), and CaCl2 added to set free [Ca^2+] to 10 μM [23]; 4 μg/mL of SR vesicle, calcium, compound, and assay mix were incubated for 20 min. The assay was started upon the addition of ATP, at a final concentration of 5 mM (total volume to 200 μL), and the rate of decrease in NADH absorbance at 340 nm was determined using a SpectraMax Plus microplate spectrophotometer (Molecular Devices, Sunnyvale, CA, USA).

[3] = target: T3, SERCA2a (Sus scrofa, UniProt P11607); experiment: Enzyme-coupled NADH-linked SERCA ATPase activity assay, cardiac SR vesicles; format: biochemical, pig
T3 construct: rabbit skeletal muscle (SERCA1a) and pig cardiac muscle (SERCA2a); from tissue; host or cells: pig cardiac muscle sarcoplasmic reticulum vesicles
Experimental: as §4

[4] = system: donor-only controls and donor-acceptor "null" linker constructs; experiment: Control biosensors (donor-only 1CS and donor-acceptor null linker) lifetime CRC in HEK293 cells; format: cell-based, human; details: G/R and O/M control cell lines
Experimental: HEK293 (originally derived from human embryonic kidney) cells were maintained in phenol red-free DMEM from Gibco (Waltham, MA, USA) supplemented with 2 mM GlutaMAX (Gibco), 10% fetal bovine serum (FBS), from Atlanta Biologicals (Lawrenceville, GA, USA), and 1 IU/mL penicillin/streptomycin (Gibco) and grown at 37 °C with 5% CO2. HEK293 cell lines were used to generate stable clones overexpressing the FRET-based biosensors (containing both donor and acceptor) and corresponding donor-only and acceptor-only control cell lines. Three days prior to screening, the stable cell lines were expanded into T225 flasks from Corning Inc. (Corning, NY, USA). […] On each day of screening, cell viability was assessed using the trypan blue assay and found to be above 95% viable. […] Subcellular localization of each biosensor was evaluated using an Olympus FluoView FV1000 IX2 (Tokyo, Japan) Inverted Confocal microscope with FLIM detector. GFP and RFP signals were assessed using 473 and 561 nm laser excitation, respectively. […]
An in-depth description of the fluorescence instrumentation has previously been described in detail and can be found in our previous publication. […] Fluorescence decay waveforms (with upper-end specifications of […] resolution, 640 data points over 128 ns range) for FLT determination were detected directly as previously described, except that two different light sources were used for GFP and OFP. In both cases, fluorescence was excited with a pulsed microchip laser producing nanosecond-wide pulses. […] These filters were selected to exclude acceptor fluorescence, as only the lifetime of the donor fluorescent protein is required to calculate FRET (Equation (1)). […] The observed time-resolved fluorescence waveform was analyzed as described previously, assuming a single-exponential decay, to determine the fluorescence lifetimes (FLT) for control samples containing donor only (τD) and FRET biosensor samples containing donor plus acceptor (τDA). FRET efficiency was calculated from (1) FRET=1−(τDA/τD) […]

[5] = target: T1, human cardiac calcium pump (SERCA2a); experiment: 2CS (G/R, GFP/RFP) FRET fluorescence lifetime biosensor in living HEK293 cells; format: cell-based; set-up: expressed in transfected cells
Experimental: as §1, §2, §3

[6] = known SERCA inhibitors, concentration-response curve, live HEK293 cells, 532 nm excitation, read-out: EC50 of lifetime change, h2CS2a (O/M)
[7] = mean ± SD, concentration-response curve
[8] = known SERCA inhibitors, concentration-response curve, live HEK293 cells, 473 nm excitation, read-out: EC50 of lifetime change, h2CS2a (G/R)
[9] = LOPAC hits, 16-point CRC, Hill fit, apparent EC50 for FPL 64176 (no saturation), read-out: EC50 of lifetime change, 2CS (OFP/MFP)
[10] = LOPAC hits, 16-point CRC, Hill fit, apparent EC50 for FPL 64176 (no saturation), read-out: EC50 of lifetime change, 2CS (GFP/RFP)

T2 sequence (P04191 1-994 isoform P04191-2): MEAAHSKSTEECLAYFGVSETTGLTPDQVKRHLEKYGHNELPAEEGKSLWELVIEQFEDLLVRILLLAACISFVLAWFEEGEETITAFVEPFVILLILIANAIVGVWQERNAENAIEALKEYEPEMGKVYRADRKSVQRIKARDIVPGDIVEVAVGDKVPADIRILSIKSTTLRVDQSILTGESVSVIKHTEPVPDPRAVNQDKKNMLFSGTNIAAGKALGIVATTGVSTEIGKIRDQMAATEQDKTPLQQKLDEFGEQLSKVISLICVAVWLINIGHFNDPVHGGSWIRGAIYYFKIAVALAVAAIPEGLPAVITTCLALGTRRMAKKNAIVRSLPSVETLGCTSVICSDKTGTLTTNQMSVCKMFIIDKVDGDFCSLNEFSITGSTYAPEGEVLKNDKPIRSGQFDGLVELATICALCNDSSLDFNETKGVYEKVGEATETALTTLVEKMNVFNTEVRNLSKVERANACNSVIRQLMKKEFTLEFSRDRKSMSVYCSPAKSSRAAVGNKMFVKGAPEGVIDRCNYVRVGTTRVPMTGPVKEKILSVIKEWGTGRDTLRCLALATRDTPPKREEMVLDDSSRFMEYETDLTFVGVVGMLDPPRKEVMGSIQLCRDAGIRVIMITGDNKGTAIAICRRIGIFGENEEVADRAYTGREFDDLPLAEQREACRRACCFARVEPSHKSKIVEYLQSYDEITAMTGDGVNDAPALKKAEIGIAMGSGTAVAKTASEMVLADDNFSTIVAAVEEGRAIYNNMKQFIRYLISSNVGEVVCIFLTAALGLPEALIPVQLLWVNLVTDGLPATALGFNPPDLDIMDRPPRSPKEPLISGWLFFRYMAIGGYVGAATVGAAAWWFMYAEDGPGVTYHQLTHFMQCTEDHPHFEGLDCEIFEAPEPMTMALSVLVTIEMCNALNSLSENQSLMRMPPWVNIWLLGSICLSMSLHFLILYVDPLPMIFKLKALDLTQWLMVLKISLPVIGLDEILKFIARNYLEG
T1 sequence (P16615 1-997 isoform P16615-2): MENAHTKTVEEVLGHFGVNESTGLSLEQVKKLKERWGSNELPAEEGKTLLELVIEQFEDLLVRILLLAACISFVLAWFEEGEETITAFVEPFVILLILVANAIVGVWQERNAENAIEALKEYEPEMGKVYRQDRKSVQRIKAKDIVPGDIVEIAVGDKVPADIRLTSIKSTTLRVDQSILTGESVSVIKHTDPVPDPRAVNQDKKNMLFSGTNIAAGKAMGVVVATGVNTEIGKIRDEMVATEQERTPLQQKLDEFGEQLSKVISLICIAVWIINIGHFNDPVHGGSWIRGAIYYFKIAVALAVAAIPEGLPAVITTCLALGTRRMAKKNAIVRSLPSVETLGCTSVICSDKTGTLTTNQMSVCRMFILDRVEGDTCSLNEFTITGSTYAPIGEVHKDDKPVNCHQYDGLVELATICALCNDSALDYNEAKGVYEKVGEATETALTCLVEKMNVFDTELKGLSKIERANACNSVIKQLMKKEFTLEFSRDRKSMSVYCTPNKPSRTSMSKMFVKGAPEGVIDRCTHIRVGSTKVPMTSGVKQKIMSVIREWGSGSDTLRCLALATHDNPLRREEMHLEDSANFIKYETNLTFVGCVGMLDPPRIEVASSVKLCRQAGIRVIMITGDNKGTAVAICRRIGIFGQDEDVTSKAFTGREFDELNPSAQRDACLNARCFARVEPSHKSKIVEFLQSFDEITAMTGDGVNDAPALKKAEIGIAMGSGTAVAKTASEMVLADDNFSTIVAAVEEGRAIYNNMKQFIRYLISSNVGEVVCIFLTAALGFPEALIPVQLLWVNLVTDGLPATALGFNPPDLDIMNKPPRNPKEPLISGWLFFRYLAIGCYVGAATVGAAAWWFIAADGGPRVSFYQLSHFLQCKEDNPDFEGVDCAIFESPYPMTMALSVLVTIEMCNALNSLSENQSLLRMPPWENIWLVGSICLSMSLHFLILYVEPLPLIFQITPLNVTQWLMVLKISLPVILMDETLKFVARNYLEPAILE
T3 sequence (P11607 1-997 isoform P11607-2): as the sequence (P16615 1-997 isoform P16615-2) above, with R371K, N403K, S538P, L570M, H576N, D667E, A713S, S865T, I889V, V963L counted along it

EC50 [1, 9]	effect on Ca-dependent ATPase activity, SERCA1a ([2]; CRC, free Ca2+ 10 μM)	effect on Ca-dependent ATPase activity, SERCA2a ([3]; CRC, free Ca2+ 10 μM)	EC50 [5, 10]	SMILES	effect on FRET/lifetime of donor-only and null-linker controls [4]	EC50 [1, 6]	EC50 [5, 8]	further results
–	–	–	–	Oc1ccc2ccccc2c1SSc1c(O)ccc2ccccc12 [IPA3]	significant concentration-dependent changes in fluorescence lifetime	–	–	concentration at which FRET abruptly and significantly decreased, 2CS (O/M) ([1]; non-sigmoidal CRC): approximately 10 μM; IC50 ([2]; CRC, free Ca2+ 10 μM, read-out: apparent EC50 (IC50) of ATPase inhibition, SERCA1a): 9.5 µM; IC50 ([3]; CRC, free Ca2+ 10 μM, read-out: apparent EC50 (IC50) of ATPase inhibition, SERCA2a): 8 µM; concentration at which FRET abruptly and significantly decreased, 2CS (G/R) ([5]; non-sigmoidal CRC): approximately 10 μM
–	–	–	–	C/C=C(/C)C(=O)O[C@H]1C(C)=C2[C@H]([C@@H]1OC(=O)CCCCCCC)[C@@](C)(OC(C)=O)C[C@H](OC(=O)CCC)[C@@]1(O)[C@H]2OC(=O)[C@@]1(C)O [thapsigargin]	–	0.0022 ± 0.0013 µM	0.0044 ± 0.0012 µM	lifetime change Δτ at saturating compound, h2CS2a (O/M) [1, 7]: 258 ± 12 ps; lifetime change Δτ at saturating compound, h2CS2a (G/R) [5, 7]: 136 ± 10 ps
–	–	–	–	CC(=O)C1=C(O)[C@@H]2[C@H]3c4c[nH]c5cccc(c45)C[C@H]3C(C)(C)N2C1=O [CPA, cyclopiazonic acid]	–	0.626 µM	0.715 µM	–
21.1 µM and 21 µM	biphasic ATPase activation	biphasic ATPase activation	26.5 µM and 26 µM	COC(=O)c1c(C)[nH]c(C)c1C(=O)c1ccccc1Cc1ccccc1 [FPL 64176]	no significant effect on FRET	–	–	FRET (lifetime) response in CRC, 2CS (O/M) ([1]; 16-point CRC): did not saturate at the highest concentrations; ATPase activation of SERCA2a in comparison to SERCA1a (EC50 and % change) ([3]; cardiac versus skeletal isoform): significantly more effective; FRET (lifetime) response in CRC, 2CS (G/R) ([5]; 16-point CRC): did not saturate at the highest concentrations
7.2 µM	biphasic	biphasic	13.8 µM	c1ccc(C(NCc2cccnc2)(c2ccccc2)c2ccccc2)cc1 [UCL 2077, 3-(triphenylmethylaminomethyl)pyridine]	no significant effect on FRET	–	–	compound concentration at which ATPase activity peaked, SERCA1a ([2]; biphasic CRC): around 3 micromolar; compound concentration at which ATPase activity peaked, SERCA2a ([3]; biphasic CRC): around 3 micromolar
